According to the supplement of paper PMC4862054:
Several values for one entry are separate records, joined by “and”; a condition that tells them apart may be missing. Identical values can stand only once.

system: CAL-51; experiment: drug sensitivity score (DSS), CellTiter-Blue viability (DSS (AUC-based score)); higher = stronger viability inhibition; extreme values may be limits of the assay; details: incubation time: 72 h
Outline: (§1)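 Each 384-well plate was normalised to two references, 0.1 % DMSO and a positive kill control. Breast cancer cell lines (20 µl suspension) had been seeded onto compound at 5 or 9 concentrations and incubated 72 h, after which viability was read by CellTiter-Blue fluorescence at 560/590 nm. The drug sensitivity score reflects the area under the fitted dose-response curve.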

Row | SMILES | drug sensitivity score
1 | COc1c2occc2cc2ccc(=O)oc12 [Methoxsalen] | 0
2 | CO[C@@H]1[C@H](N(C)C(=O)c2ccccc2)C[C@H]2O[C@]1(C)n1c3ccccc3c3c4c(c5c6ccccc6n2c5c31)C(=O)NC4 [Midostaurin] | 19.4
3 | CO[C@@]12[C@H](COC(N)=O)C3=C(C(=O)C(C)=C(N)C3=O)N1C[C@@H]1N[C@@H]12 [Mitomycin C] | 2.74
4 | CCNC(=O)c1noc(-c2cc(C(C)C)c(O)cc2O)c1-c1ccc(CN2CCOCC2)cc1 [NVP-AUY922] | 18.6
5 | CC1(C)CCC(c2ccc(Cl)cc2)=C(CN2CCN(c3ccc(C(=O)NS(=O)(=O)c4ccc(N[C@H](CCN5CCOCC5)CSc5ccccc5)c(S(=O)(=O)C(F)(F)F)c4)cc3)CC2)C1 [Navitoclax] | 0
6 | Cc1cn(-c2cc(NC(=O)c3ccc(C)c(Nc4nccc(-c5cccnc5)n4)c3)cc(C(F)(F)F)c2)cn1 [Nilotinib] | 0
7 | C=CCN(/C=C1/C(=O)O[C@H](COC)[C@@]2(C)C1=C(O)C(=O)C1=C2[C@H](OC(C)=O)C[C@]2(C)C(=O)CC[C@@H]12)CC=C [PX-866] | 0
8 | CC[C@H](CO)Nc1nc(NCc2ccccc2)c2ncn(C(C)C)c2n1 [Roscovitine] | 0

system: MDA-MB-231; experiment: as above; details: incubation time: 72 h
Outline: as §1

Row | SMILES | drug sensitivity score
9 | COc1c2occc2cc2ccc(=O)oc12 [Methoxsalen] | 0
10 | CO[C@@H]1[C@H](N(C)C(=O)c2ccccc2)C[C@H]2O[C@]1(C)n1c3ccccc3c3c4c(c5c6ccccc6n2c5c31)C(=O)NC4 [Midostaurin] | 9.28
11 | CO[C@@]12[C@H](COC(N)=O)C3=C(C(=O)C(C)=C(N)C3=O)N1C[C@@H]1N[C@@H]12 [Mitomycin C] | 5.97
12 | CCNC(=O)c1noc(-c2cc(C(C)C)c(O)cc2O)c1-c1ccc(CN2CCOCC2)cc1 [NVP-AUY922] | 17.3
13 | CC1(C)CCC(c2ccc(Cl)cc2)=C(CN2CCN(c3ccc(C(=O)NS(=O)(=O)c4ccc(N[C@H](CCN5CCOCC5)CSc5ccccc5)c(S(=O)(=O)C(F)(F)F)c4)cc3)CC2)C1 [Navitoclax] | 7.75
14 | Cc1cn(-c2cc(NC(=O)c3ccc(C)c(Nc4nccc(-c5cccnc5)n4)c3)cc(C(F)(F)F)c2)cn1 [Nilotinib] | 4.55 and 5.18
15 | C=CCN(/C=C1/C(=O)O[C@H](COC)[C@@]2(C)C1=C(O)C(=O)C1=C2[C@H](OC(C)=O)C[C@]2(C)C(=O)CC[C@@H]12)CC=C [PX-866] | 5.75
16 | CC[C@H](CO)Nc1nc(NCc2ccccc2)c2ncn(C(C)C)c2n1 [Roscovitine] | 0

system: MDA-MB-468; experiment: as above; details: incubation time: 72 h
Outline: as §1

Row | SMILES | drug sensitivity score
17 | COc1c2occc2cc2ccc(=O)oc12 [Methoxsalen] | 0
18 | CO[C@@H]1[C@H](N(C)C(=O)c2ccccc2)C[C@H]2O[C@]1(C)n1c3ccccc3c3c4c(c5c6ccccc6n2c5c31)C(=O)NC4 [Midostaurin] | 9.5
19 | CO[C@@]12[C@H](COC(N)=O)C3=C(C(=O)C(C)=C(N)C3=O)N1C[C@@H]1N[C@@H]12 [Mitomycin C] | 7.16
20 | CCNC(=O)c1noc(-c2cc(C(C)C)c(O)cc2O)c1-c1ccc(CN2CCOCC2)cc1 [NVP-AUY922] | 19.4
21 | CC1(C)CCC(c2ccc(Cl)cc2)=C(CN2CCN(c3ccc(C(=O)NS(=O)(=O)c4ccc(N[C@H](CCN5CCOCC5)CSc5ccccc5)c(S(=O)(=O)C(F)(F)F)c4)cc3)CC2)C1 [Navitoclax] | 3.12
22 | Cc1cn(-c2cc(NC(=O)c3ccc(C)c(Nc4nccc(-c5cccnc5)n4)c3)cc(C(F)(F)F)c2)cn1 [Nilotinib] | 0
23 | C=CCN(/C=C1/C(=O)O[C@H](COC)[C@@]2(C)C1=C(O)C(=O)C1=C2[C@H](OC(C)=O)C[C@]2(C)C(=O)CC[C@@H]12)CC=C [PX-866] | 8.51
24 | CC[C@H](CO)Nc1nc(NCc2ccccc2)c2ncn(C(C)C)c2n1 [Roscovitine] | 0

system: HDQ-P1; experiment: as above; details: incubation time: 72 h
Outline: as §1

Row | SMILES | drug sensitivity score
25 | COc1c2occc2cc2ccc(=O)oc12 [Methoxsalen] | 0
26 | CO[C@@H]1[C@H](N(C)C(=O)c2ccccc2)C[C@H]2O[C@]1(C)n1c3ccccc3c3c4c(c5c6ccccc6n2c5c31)C(=O)NC4 [Midostaurin] | 10.9
27 | CO[C@@]12[C@H](COC(N)=O)C3=C(C(=O)C(C)=C(N)C3=O)N1C[C@@H]1N[C@@H]12 [Mitomycin C] | 2.19
28 | CCNC(=O)c1noc(-c2cc(C(C)C)c(O)cc2O)c1-c1ccc(CN2CCOCC2)cc1 [NVP-AUY922] | 18
29 | CC1(C)CCC(c2ccc(Cl)cc2)=C(CN2CCN(c3ccc(C(=O)NS(=O)(=O)c4ccc(N[C@H](CCN5CCOCC5)CSc5ccccc5)c(S(=O)(=O)C(F)(F)F)c4)cc3)CC2)C1 [Navitoclax] | 9.87
30 | Cc1cn(-c2cc(NC(=O)c3ccc(C)c(Nc4nccc(-c5cccnc5)n4)c3)cc(C(F)(F)F)c2)cn1 [Nilotinib] | 0
31 | C=CCN(/C=C1/C(=O)O[C@H](COC)[C@@]2(C)C1=C(O)C(=O)C1=C2[C@H](OC(C)=O)C[C@]2(C)C(=O)CC[C@@H]12)CC=C [PX-866] | 3.65
32 | CC[C@H](CO)Nc1nc(NCc2ccccc2)c2ncn(C(C)C)c2n1 [Roscovitine] | 0

system: BT-549; experiment: as above; details: incubation time: 72 h
Outline: as §1

Row | SMILES | drug sensitivity score
33 | COc1c2occc2cc2ccc(=O)oc12 [Methoxsalen] | 0
34 | CO[C@@H]1[C@H](N(C)C(=O)c2ccccc2)C[C@H]2O[C@]1(C)n1c3ccccc3c3c4c(c5c6ccccc6n2c5c31)C(=O)NC4 [Midostaurin] | 9.72
35 | CO[C@@]12[C@H](COC(N)=O)C3=C(C(=O)C(C)=C(N)C3=O)N1C[C@@H]1N[C@@H]12 [Mitomycin C] | 4.28
36 | CCNC(=O)c1noc(-c2cc(C(C)C)c(O)cc2O)c1-c1ccc(CN2CCOCC2)cc1 [NVP-AUY922] | 19.6
37 | CC1(C)CCC(c2ccc(Cl)cc2)=C(CN2CCN(c3ccc(C(=O)NS(=O)(=O)c4ccc(N[C@H](CCN5CCOCC5)CSc5ccccc5)c(S(=O)(=O)C(F)(F)F)c4)cc3)CC2)C1 [Navitoclax] | 3.17
38 | Cc1cn(-c2cc(NC(=O)c3ccc(C)c(Nc4nccc(-c5cccnc5)n4)c3)cc(C(F)(F)F)c2)cn1 [Nilotinib] | 6.16 and 6.02
39 | C=CCN(/C=C1/C(=O)O[C@H](COC)[C@@]2(C)C1=C(O)C(=O)C1=C2[C@H](OC(C)=O)C[C@]2(C)C(=O)CC[C@@H]12)CC=C [PX-866] | 0
40 | CC[C@H](CO)Nc1nc(NCc2ccccc2)c2ncn(C(C)C)c2n1 [Roscovitine] | 2.4
